Experiment [1] concerns IFN induction in dsDNA-stimulated human whole blood. The experiment is described as follows: Human whole blood assay, dsDNA transfection, IFNα2a production (hWB IC50).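 Note: cGAS pathway activity, IFNα2a in plasma by MSD immunoassay after 22 h at 37 °C, 8 concentrations up to 10 µM in 0.1% DMSO, DMSO controls.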 The format is cell-based.
Method: For the detection of cellular cGAS activity human whole blood was stimulated by transfection with double stranded DNA. Pathway activity was monitored by measuring the IFNα2α production.
Typically, 8 concentrations were used with the highest concentration at 10 μM in the final assay volume followed by ˜1:5 dilution steps. DMSO concentration was set to 0.1% in the final assay volume. The 96-well assay plate contained 10 test compounds, and DMSO in control wells.
Whole blood was kept at room temperature for a maximum of 3 hours after collection until use in the assay.
160 μl of the whole blood samples was transferred to each well of the 96-well assay plates filled with compound/OptiMEM. All assay plates were prepared as duplicates with blood from different donors. Blood plates were kept at room temperature for 60 minutes and continuous shaking with 450 rpm, covered with the lid, but not sealed.
20 μl OptiMEM and 9.6:1 Fugene was added to all low control wells.
After covering assay plates with aera seals and the lid, blood plates were kept at room temperature for 30 minutes and continuous shaking with 450 rpm, followed by an overnight incubation of 22 h at 37° C. in the incubator, without shaking.
U-Plex MSD GOLD 96-well Small Spot Strepavidin SECTOR Plates (Meso Scale Diagnostics #L45SA-5) were coated with 25 μl diluted capture antibody. Coated plates were incubated for 60 min at room temperature under continuous shaking at 700 rpm. MSD IFNα-2a plates were washed three times with 150 μl wash buffer (1×HBSS, 0.05% Tween).
After blocking the plates with 100 μl block solution/well (1×HBSS with 0.2% Tween, 2% BSA) for 60 min at room temperature and continuous shaking at 700 rpm, plates were emptied as dry as possible by dumping just before continuing with the human plasma.
Whole Blood assay plates were centrifuged at 1600 rpm for 10 minutes. 25 μl of supernatant was transferred with a pipetting robot from each whole blood plate to the corresponding IFNα-2a plate.
Plates were sealed with microplate seals and kept at room temperature again under continuous shaking at 700 rpm for two hours.
Next MSD IFNα-2a plates were washed three times with 150 μl wash buffer (1×HBSS, 0.05% Tween), before adding 25 μl MSD SULFO-TAG IFNα-2a Antibody solution (1:100 diluted in Diluent 3 (Meso Scale Diagnostics #R50AP-2) to each well of the plates.
Afterwards plates were sealed with microplate seals and kept at room temperature again under continuous shaking at 700 rpm for two hours. Finally, MSD IFNα-2α plates were washed three times with 150 μl wash buffer (1×HBSS, 0.05% Tween). 150 μl 2× Read buffer was added to each well and plates were immediately measured with the MSD Sector S600 Reader using the vendor barcode.
For data evaluation and calculation, % control calculation of each well was based on the mean of high (DNA stimulated control) and mean of low (unstimulated control) controls by using the following formula: [counts(sample)−counts(low))/(counts(high)−counts(low))]*100
The IC50 values were calculated using the standard 4 parameter logistic regression formula. Calculation: [y=(a−d)/(1+(x/c)^b)+d], a=low value, d=high value; x=conc M; c=1C50 M; b=slope
Experiment [2] deals with IFN induction in cGAMP-stimulated THP1 cells. Description: cGAMP stimulated counter cell assay, THP1-Dual cells, Lucia luciferase reporter (THP1(cGAMP) IC50).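 Note: IRF-driven Lucia luciferase luminescence after 18 h at 37° C, compound series topping at 10 µM with 1% DMSO, unstimulated wells as 0% and DMSO wells as 100%.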 It is filed as cell-based. The settings on record: Homo sapiens, THP-1, THP1-Dual cells stimulated with 10 μM cGAMP. For orientation: Reporter assays use an easily measured gene product as a stand-in for the process of interest.
From the text: 6.2 Method: Human cGAS Cell Assay and cGAMP Stimulated Counter Cell Assay (THP1(vir) IC50 and THP1(cGAMP) IC50)
THP1-Dual™ cells (InvivoGen #thpd-nfis) expressing IRF dependent Lucia luciferase reporter were used as basis for both assays.
(§1) For the counter assay, cells were stimulated by cGAMP (SigmaAldrich #SML1232) to activate the identical pathway independent and directly downstream of cGAS (measurement of THP1(cAMP) IC50). Pathway activity was monitored by measuring the Lucia luciferase activity induced by either DNA stimulated cGAS enzyme activity (measurement of THP1^(vir) IC50) or by cGAMP directly (measurement of THP1(cAMP) IC50, counter assay).
Compounds were delivered in 10 mM DMSO solution, serially diluted and transferred to the 384 well assay plate (Greiner #781201) using an Echo acoustic dispenser. Typically, 8 concentrations were used with the highest concentration at 10 μM in the final assay volume followed by ˜1:5 dilution steps. DMSO concentration was set to 1% in the final assay volume. The 384 well assay plate contained 21 test compounds (column 1-22), and DMSO in column 23 and 24.
(§2) 30 μL of the cell/virus-mix were added to each well of the compound plate from column 1-23 via MultiDrop Combi dispenser (5000 cells/well). In column 24, 30 μl/5000 cells/well without virus were added as a low control.
(§3) The plates were then incubated for 18 h at 37° C. in a humidified incubator.
(§4) Following that, 15 μL of QuantiLuc detection reagent (InvivoGen #rep-qlcg5) were added to each well using a MultiDrop Combi. Measurement was done immediately after the addition using an EnVision reader (US-luminescence read-mode).
Data Evaluation and Calculation:
(§5) For data evaluation and calculation, the measurement of the low control was set as 0% control and the measurement of the high control was set as 100% control. The IC50 values were calculated using the standard 4 parameter logistic regression formula. Calculation: [y=(a−d)/(1+(x/c)^b)+d], a=low value, d=high value; x=conc M; c=1C50 M; b=slope

A further experiment has as its target Human cGAS (Homo sapiens (Human), UniProt Q8N884). The experiment is described as follows: Human cGAS enzyme assay (hcGAS IC50, in vitro), cGAMP formation by RapidFire MS.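 Note: compounds preincubated 60 min, then GTP and ATP (30 µM each) added for 90 min at room temperature, cGAMP read relative to cyclic-di-GMP internal standard, no-enzyme/DNA wells as 0%.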 It is filed as biochemical. The settings on record: 45 bp dsDNA, GTP/ATP.
Experiment [3] relates to IFN induction in virus-stimulated THP1 cells. The experiment is described as follows: Human cGAS cell assay, baculovirus-stimulated THP1-Dual cells, Lucia luciferase reporter (THP1(vir) IC50).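 For all read-outs here: IRF-dependent luminescence, 8 concentrations up to 10 µM in 1% DMSO, 0% = unstimulated cells, 100% = DMSO plus virus, counter assay stimulated with cGAMP downstream of cGAS.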 Particulars: for IC50: Homo sapiens, THP-1, baculovirus-stimulated THP1-Dual cells, 18 h; for Ratio THP(cGAMP) IC50/THP(vir) IC50: selectivity for cGAS inhibition. It is filed as cell-based.
From the text: THP1-Dual™ cells (InvivoGen #thpd-nfis) expressing IRF dependent Lucia luciferase reporter were used as basis for both assays. For the detection of cellular cGAS activity cells were stimulated by a baculovirus (pFastbac-1, Invitrogen, no coding insert) infection that delivers the cGAS enzyme stimulating double-stranded DNA (measurement of THP1(vir) IC50).
as §1
Typically, 8 concentrations were used with the highest concentration at 10 μM in the final assay volume followed by ˜1:5 dilution steps. DMSO concentration was set to 1% in the final assay volume. The 384 well assay plate contained 21 test compounds (column 1-22), and DMSO in column 23 and 24.
The baculovirus solution was then added 1:200 (may have varied according to virus batch) to the cells (measurement of THP1(vir) IC50).
as §2, §3, §4
Data Evaluation and Calculation:
as §5

A word on the IC50: it is the concentration that inhibits the measured activity by half. A higher IC50 goes with a need for much substance.

Chain of Human cGAS (Q8N884 whole entry): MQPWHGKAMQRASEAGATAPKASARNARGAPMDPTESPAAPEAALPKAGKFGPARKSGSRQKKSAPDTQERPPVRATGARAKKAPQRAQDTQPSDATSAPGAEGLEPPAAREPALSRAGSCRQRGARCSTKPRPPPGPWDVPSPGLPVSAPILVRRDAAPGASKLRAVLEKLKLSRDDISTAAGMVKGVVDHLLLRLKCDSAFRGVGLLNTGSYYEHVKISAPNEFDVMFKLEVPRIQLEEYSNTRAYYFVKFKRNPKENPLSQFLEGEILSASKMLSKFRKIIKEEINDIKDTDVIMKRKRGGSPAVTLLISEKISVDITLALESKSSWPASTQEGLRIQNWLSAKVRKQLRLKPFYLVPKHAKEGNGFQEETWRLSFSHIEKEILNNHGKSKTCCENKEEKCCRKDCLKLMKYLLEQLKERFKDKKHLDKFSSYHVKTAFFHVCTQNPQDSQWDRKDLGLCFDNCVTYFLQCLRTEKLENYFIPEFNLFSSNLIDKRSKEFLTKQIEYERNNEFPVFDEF

For `C#Cc1cnc(O[C@H]2C[C@@H](C(=O)O)N(c3nc(C(F)(F)F)nc4c3oc3ccccc34)C2)c([C@@]2(F)CCN(C(C)=O)C[C@@H]2C)c1` [Example 2.19], the IC50 amounted to 57 nM in experiment [1], 9.96 µM in experiment [2], 5 nM on Human cGAS and 23 nM in experiment [3]. The “Ratio THP(cGAMP) IC50/THP(vir) IC50” value in experiment [3] is 435.

As to `C#Cc1cnc(O[C@H]2C[C@@H](C(=O)O)N(c3nc(C(F)(F)F)nc4c3oc3ccccc34)C2)c([C@@]2(F)CC(C)(C)S(=O)(=O)C[C@@H]2C)c1` [Example 1.08], the IC50 in experiment [1] is 16 nM; in experiment [2] it was 13.9 µM; on Human cGAS it was 4 nM; in experiment [3] it was 4 nM. In addition, the “Ratio THP(cGAMP) IC50/THP(vir) IC50” value in experiment [3] was found to be 3275.

Regarding `CO[C@]1(c2cc(Cl)cnc2O[C@H]2C[C@@H](C(=O)O)N(c3nc(C(F)F)nc4c3oc3ccccc34)C2)CCS(=O)(=O)C[C@@H]1C` [Example 2.06], the IC50 in experiment [1] is 287 nM; in experiment [2], 14.6 µM; at Human cGAS it was 8 nM; in experiment [3], 314 nM. In experiment [3], the “Ratio THP(cGAMP) IC50/THP(vir) IC50” value is on record as 46.

With `C#Cc1cnc(O[C@H]2C[C@@H](C(=O)O)N(c3nc(C(F)(F)F)nc4c3oc3ccccc34)C2)c(C2(F)CCS(=O)(=O)CC2)c1` [Example 2.07], the IC50 in experiment [1] is 97 nM; in experiment [2], above 16.6 µM; against Human cGAS, 2 nM; in experiment [3], 688 nM. Besides, the “Ratio THP(cGAMP) IC50/THP(vir) IC50” value in experiment [3] is above 24.

With `O=C(O)[C@@H]1C[C@H](Oc2ncc(Cl)cc2[C@]2(F)CCS(=O)(=O)C3(COC3)C2)CN1c1nc(C(F)F)nc2c1oc1ccccc12` [Example 1.20], the IC50 in experiment [1] amounted to 55 nM; in experiment [2] it was 15.5 µM; at Human cGAS, 3 nM; in experiment [3] it was 139 nM. In addition, in experiment [3], the “Ratio THP(cGAMP) IC50/THP(vir) IC50” value came out at 111.

As for `COC(=O)[C@@H]1C[C@H](Oc2ncc(Cl)cc2[C@@]2(F)CCS(=O)(=O)C[C@@H]2C)CN1c1nc(C(F)F)nc2c1oc1ccccc12` [Example P02], the IC50 in experiment [1] was 140 nM; in experiment [2], above 16.6 µM; against Human cGAS, above 9950 nM; in experiment [3], 29 nM.

In the case of `C#Cc1cnc(O[C@H]2C[C@@H](C(=O)O)N(c3nc(C(F)F)nc4c3oc3ccccc34)C2)c([C@]2(F)CCS(=O)(=O)C(C)(C)C2)c1` [Example 1.15], the IC50 in experiment [1] amounted to 22 nM; in experiment [2], 10.2 µM; against Human cGAS, 6 nM; in experiment [3], 11 nM. Further, in experiment [3], the “Ratio THP(cGAMP) IC50/THP(vir) IC50” value was found to be 963.

Take `C[C@H]1CS(=O)(=O)CC[C@@]1(F)c1cc(Cl)cnc1O[C@H]1C[C@@H](C(=O)O)N(c2nc(C(F)F)nc3c2oc2ccccc23)C1` [Example 1.11]: the IC50 was 194 nM in experiment [1], above 16.6 µM in experiment [2], 2 nM against Human cGAS and 731 nM in experiment [3].

For the compound `C[C@H]1CN(C(N)=O)CC[C@]1(F)c1cc(Cl)cnc1O[C@H]1C[C@@H](C(=O)O)N(c2nc(C(F)F)nc3c2oc2ccccc23)C1` [Example 1.24], the IC50 in experiment [1] amounted to 479 nM; in experiment [2], 21.8 µM; at Human cGAS it was 7 nM; in experiment [3] it was 248 nM. In addition, the “Ratio THP(cGAMP) IC50/THP(vir) IC50” value in experiment [3] is on record as 88.

Turning to `COC(=O)[C@@H]1C[C@H](Oc2ncc(Cl)cc2[C@@]2(OC)CC(C)(C)S(=O)(=O)C[C@@H]2C)CN1c1nc(C(F)F)nc2c1oc1ccccc12` [Example P03], the IC50 in experiment [1] was 1990 nM; in experiment [2] it was 20.6 µM; against Human cGAS, 7250 nM; in experiment [3] it was 202 nM.

For `C#Cc1cnc(O[C@H]2C[C@@H](C(=O)O)N(c3nc(C(F)F)nc4c3oc3ccccc34)C2)c([C@@]2(F)CCOC[C@@H]2C)c1` [Example 1.02], the IC50 in experiment [1] was determined as 103 nM; in experiment [2], 18.9 µM; against Human cGAS, 3 nM; in experiment [3] it was 351 nM. For the same compound, the “Ratio THP(cGAMP) IC50/THP(vir) IC50” value in experiment [3] is reported as 54.

For the compound `C#Cc1cnc(O[C@H]2C[C@@H](C(=O)O)N(c3nc(C(F)(F)F)nc4c3oc3ccccc34)C2)c([C@]2(F)CCOC[C@@H]2C)c1` [Example 1.04], the IC50 is 648 nM in experiment [1], 24.9 µM in experiment [2], 4 nM at Human cGAS and 378 nM in experiment [3]. In experiment [3], the “Ratio THP(cGAMP) IC50/THP(vir) IC50” value was 66.

In the case of `C#Cc1cnc(O[C@H]2C[C@@H](C(=O)O)N(c3nc(C(F)(F)F)nc4c3oc3ccccc34)C2)c(C23CCOCC2C3)c1` (stereo partly drawn) [Example 4.01, (2S,4S)-4-[(5-ethynyl-3-{3-oxabicyclo[4.1.0]heptan-6-yl}pyridin-2-yl)oxy]-1-[4-(trifluoromethyl)-8-oxa-3,5-diazatricyclo[7.4.0.0^2,7]trideca-1(13),2,4,6,9,11-hexaen-6-yl]pyrrolidine-2-carboxylic acid], the IC50 in experiment [1] is 1500 nM; in experiment [2], above 16.6 µM; against Human cGAS, 8 nM; in experiment [3] it was 784 nM. The “Ratio THP(cGAMP) IC50/THP(vir) IC50” value in experiment [3] is listed as above 21.

Regarding `CNc1cc(-c2cnc(O[C@H]3C[C@@H](C(=O)O)N(c4nc(C(F)F)nc5c4oc4ccccc45)C3)c([C@@]3(F)CCOC[C@@H]3C)c2)ccn1` [Example 3.02], the IC50 in experiment [1] amounted to 53 nM; in experiment [2] it was 4.71 µM; against Human cGAS, 2 nM; in experiment [3], 23 nM. Moreover, the “Ratio THP(cGAMP) IC50/THP(vir) IC50” value in experiment [3] worked out at 201.

For `C#Cc1cnc(O[C@H]2C[C@@H](C(=O)O)N(c3nc(C(F)F)nc4c3oc3ccccc34)C2)c(C2(F)CCS(=O)(=O)CC2)c1` [Example 2.03], the IC50 in experiment [1] was 40 nM; in experiment [2] it was above 16.6 µM; at Human cGAS it was 2 nM; in experiment [3] it was 112 nM. The “Ratio THP(cGAMP) IC50/THP(vir) IC50” value in experiment [3] was above 148.

With `CNc1cccc(-c2cnc(O[C@H]3C[C@@H](C(=O)O)N(c4nc(C(F)F)nc5c4oc4ccccc45)C3)c([C@@]3(F)CCOC[C@@H]3C)c2)c1` [Example 6.03], the IC50 in experiment [1] is 38 nM; in experiment [2], 9.51 µM; on Human cGAS, 10 nM; in experiment [3], 35 nM. The “Ratio THP(cGAMP) IC50/THP(vir) IC50” value in experiment [3] worked out at 276.

With `CC#Cc1cnc(O[C@H]2C[C@@H](C(=O)O)N(c3nc(C(F)(F)F)nc4c3oc3ccccc34)C2)c([C@@]2(F)CCN(C3COC3)C[C@@H]2C)c1` [Example 2.17], the IC50 in experiment [1] was determined as 287 nM; in experiment [2] it was 3.92 µM; against Human cGAS, 96 nM; in experiment [3], 382 nM. The “Ratio THP(cGAMP) IC50/THP(vir) IC50” value in experiment [3] turned out to be 10.

In the case of `C[C@H]1CS(=O)(=O)CC[C@]1(F)c1cc(Cl)cnc1O[C@H]1C[C@@H](C(=O)O)N(c2nc(C(F)(F)F)nc3c2oc2ccccc23)C1` [Example 2.10], the concentration for half-maximal inhibition (IC50) was found to be 15 nM in experiment [1], 18.8 µM in experiment [2], 3 nM on Human cGAS and 4 nM in experiment [3]. Also, the “Ratio THP(cGAMP) IC50/THP(vir) IC50” value in experiment [3] is given as 4605.

As for `C#Cc1cnc(O[C@H]2C[C@@H](C(=O)O)N(c3nc(C(F)F)nc4c3oc3ccccc34)C2)c([C@@]2(F)CCN(C(C)=O)C[C@@H]2C)c1` [Example 2.20], the IC50 was determined as 25 nM in experiment [1], 9.89 µM in experiment [2], 4 nM against Human cGAS and 17 nM in experiment [3]. In addition, the “Ratio THP(cGAMP) IC50/THP(vir) IC50” value in experiment [3] is 583.

Regarding `C[C@H]1COCC[C@]1(F)c1cc(-c2cccc(N(C)C)c2)cnc1O[C@H]1C[C@@H](C(=O)O)N(c2nc(C(F)F)nc3c2oc2ccccc23)C1` [Example 6.04], the IC50 in experiment [1] was found to be 75 nM; in experiment [2], 7.68 µM; against Human cGAS, 17 nM; in experiment [3], 21 nM. The “Ratio THP(cGAMP) IC50/THP(vir) IC50” value in experiment [3] came out at 371.

For `C#Cc1cnc(O[C@H]2C[C@@H](C(=O)O)N(c3nc(C(F)F)nc4c3oc3ccccc34)C2)c([C@]2(F)CC(C)(C)S(=O)(=O)C[C@@H]2C)c1` [Example 1.10], the 50% inhibitory concentration (IC50) in experiment [1] was found to be 70 nM; in experiment [2], 2.25 µM; against Human cGAS, 40 nM; in experiment [3], 82 nM. Further, the “Ratio THP(cGAMP) IC50/THP(vir) IC50” value in experiment [3] is 28.

Take `O=C(O)[C@@H]1C[C@H](Oc2ncc(Cl)cc2[C@@]2(F)CCS(=O)(=O)C3(COC3)C2)CN1c1nc(C(F)F)nc2c1oc1ccccc12` [Example 1.19]: the IC50 stood at 316 nM in experiment [1], 14 µM in experiment [2], 5 nM on Human cGAS and 566 nM in experiment [3]. Besides, the “Ratio THP(cGAMP) IC50/THP(vir) IC50” value in experiment [3] came out at 25.

On to `C[C@H]1CS(=O)(=O)C(C)(C)C[C@]1(F)c1cc(Cl)cnc1O[C@H]1C[C@@H](C(=O)O)N(c2nc(C(F)F)nc3c2oc2ccccc23)C1` [Example 1.16], for which the IC50 in experiment [1] turned out to be 6 nM; in experiment [2] it was 8.24 µM; against Human cGAS it was 5 nM; in experiment [3], 8 nM. Further, the “Ratio THP(cGAMP) IC50/THP(vir) IC50” value in experiment [3] was determined as 1055.

As for `C[C@H]1CS(=O)(=O)C(C)(C)C[C@]1(F)c1cc(Cl)cnc1O[C@H]1C[C@@H](C(=O)O)N(c2nc(C(F)(F)F)nc3c2oc2ccccc23)C1` [Example 1.06], the IC50 in experiment [1] worked out at 24 nM; in experiment [2] it was 5.82 µM; against Human cGAS, 5 nM; in experiment [3], 12 nM. Further, in experiment [3], the “Ratio THP(cGAMP) IC50/THP(vir) IC50” value is 479.

For `O=C(O)[C@@H]1C[C@H](Oc2ncc(Cl)cc2[C@@]2(F)CCS(=O)(=O)C3(CC3)C2)CN1c1nc(C(F)F)nc2c1oc1ccccc12` [Example 1.18], the IC50 in experiment [1] stood at 287 nM; in experiment [2], 10.9 µM; on Human cGAS it was 9 nM; in experiment [3], 535 nM. For the same compound, the “Ratio THP(cGAMP) IC50/THP(vir) IC50” value in experiment [3] is 20.

For `C#Cc1cnc(O[C@H]2C[C@@H](C(=O)OC)N(c3nc(C(F)(F)F)nc4c3oc3ccccc34)C2)c([C@@]2(F)CCS(=O)(=O)C[C@@H]2C)c1` [Example P01], the IC50 in experiment [1] is 67 nM; in experiment [2], above 16.6 µM; at Human cGAS, 19100 nM; in experiment [3], 11 nM.

The values above are taken from patent US12043625B2, “Pyridine derivatives with c-linked cyclic substituents as cGAS inhibitors” (BOEHRINGER INGELHEIM INTERNATIONAL GMBH, priority 2021, dated 2024).
